From US20250352512A2, “C4-S[…] DERIVATIVES AND METHODS OF USING” (priority 2022, published 2025)
Like-named read-outs stand apart in the source and are kept apart here.

Key:
[1] = target: T1, 5-HT1A receptor (Homo sapiens, UniProt P08908); type: cell-based; details: for 5-HT1A receptor modulation: comparison of +5-HT1A with -5-HT1A cultures, 4 mM forskolin
T1 construct: host or cells: CHO-K1
T1 sequence (P08908 1-422): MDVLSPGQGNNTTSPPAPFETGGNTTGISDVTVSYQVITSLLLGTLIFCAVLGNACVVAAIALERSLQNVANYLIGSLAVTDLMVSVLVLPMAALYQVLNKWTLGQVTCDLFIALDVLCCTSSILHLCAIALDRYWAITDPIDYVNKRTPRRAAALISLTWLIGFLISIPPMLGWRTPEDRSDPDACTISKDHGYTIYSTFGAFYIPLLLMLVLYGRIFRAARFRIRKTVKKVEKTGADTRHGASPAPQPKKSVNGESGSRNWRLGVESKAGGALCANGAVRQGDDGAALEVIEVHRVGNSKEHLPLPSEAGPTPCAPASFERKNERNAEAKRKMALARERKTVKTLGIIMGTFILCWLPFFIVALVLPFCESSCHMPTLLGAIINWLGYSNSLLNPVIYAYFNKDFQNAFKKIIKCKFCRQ

[2] = target: T2, 5-HT2A receptor (5-HT2AR) (Mus musculus, UniProt P35363); experiment: Drug-induced Head Twitch Response (HTR) in mice; type: in vivo; details: C57BL/6-Elite mice, i.p. 1 mg/kg, 15-to-30-minute window following administration
T2 construct: tissue Charles River; host or cells: living C57BL/6-Elite mice (neuronal receptor)
T2 sequence (P35363 whole entry): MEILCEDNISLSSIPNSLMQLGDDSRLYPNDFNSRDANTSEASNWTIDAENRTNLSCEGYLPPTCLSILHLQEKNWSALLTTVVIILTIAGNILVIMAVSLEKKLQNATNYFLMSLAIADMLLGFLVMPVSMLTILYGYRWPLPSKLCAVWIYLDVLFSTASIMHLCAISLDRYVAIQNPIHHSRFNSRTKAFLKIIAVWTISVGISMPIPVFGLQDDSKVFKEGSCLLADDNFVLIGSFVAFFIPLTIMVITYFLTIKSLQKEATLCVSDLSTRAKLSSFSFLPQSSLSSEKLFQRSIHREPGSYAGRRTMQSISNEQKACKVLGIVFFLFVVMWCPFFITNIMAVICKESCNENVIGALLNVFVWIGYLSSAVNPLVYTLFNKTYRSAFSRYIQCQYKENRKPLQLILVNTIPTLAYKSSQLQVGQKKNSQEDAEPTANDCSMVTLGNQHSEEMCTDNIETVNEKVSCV

[3] = target: 5-HT2A receptor (Homo sapiens, UniProt P28223); experiment: [3H]ketanserin radioligand competition binding assay (SPA); details: fixed (1 nM) [3H]ketanserin, membranes containing 5-HT2A
Chain of 5-HT2A receptor (P28223 whole entry): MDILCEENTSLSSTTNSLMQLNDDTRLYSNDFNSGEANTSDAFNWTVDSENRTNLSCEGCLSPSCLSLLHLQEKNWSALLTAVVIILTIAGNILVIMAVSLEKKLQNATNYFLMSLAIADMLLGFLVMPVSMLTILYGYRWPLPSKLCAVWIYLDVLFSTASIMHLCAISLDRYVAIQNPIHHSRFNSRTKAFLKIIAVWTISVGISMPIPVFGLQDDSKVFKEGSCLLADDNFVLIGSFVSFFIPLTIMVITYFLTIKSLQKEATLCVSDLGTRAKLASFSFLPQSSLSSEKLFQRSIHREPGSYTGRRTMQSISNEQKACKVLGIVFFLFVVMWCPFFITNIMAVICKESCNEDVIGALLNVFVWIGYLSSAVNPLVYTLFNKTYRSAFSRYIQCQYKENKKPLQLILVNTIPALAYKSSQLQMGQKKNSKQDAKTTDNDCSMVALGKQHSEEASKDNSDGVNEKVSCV

[4] = Stability assay in enzyme-free control buffer; type: in vitro ADME; details: enzyme-free buffer pH 7.4, 37° C., 2 hours
Description: (§1) A fundamental evaluation in drug development is the assessment of absorption, distribution, metabolism, excretion, and pharmacokinetics (ADME/PK) (Eddershaw et al., 2000, Drug Discovery Today 5(9): 409-414). […] Drug stability upon exposure to human liver microsomes and liver S9 cellular fractions is a common in vitro assay to approximate in vivo, liver-based drug metabolism (Richardson et al., 2016 Drug Metabolism Letters 10:83-90). First-pass metabolism is also often approximated in vitro using intestinal microsome and cellular S9 fractions (Hatley et al., 2017, Biopharmaceuticals & Drug Disposition, 38(2):155-160). […] Supernatants were analyzed for the presence of candidate prodrugs (parent molecule) and psilocin (the predicted metabolite) using Orbitrap LC-MS (Thermo Scientific) using previously described methods (Menendez-Perdomo et al., 2021, J. Mass Spectrom., 56: e4683). […] Assay concentrations (μM) of both parent ‘prodrug’ molecule and psilocin metabolite, as quantified through LC-MS using routine standard curve procedures, were plotted as functions of assay time (minutes). The metabolism rate (TI/2) was determined from the metabolism curve plot using the one phase decay feature of GraphPad PRISM software (Version 9.2.0). The quantity of parent prodrug at time zero was set as 100%. […]

[5] = Metabolic stability / psilocin release in human AB serum; type: in vitro ADME; details: 10% human AB serum
Description: as §1

[6] = Metabolic stability / psilocin release in human liver microsomes; type: in vitro ADME; details: 2.5 μM, 400 μg/ml HLM, NADPH, 37° C.
Description: as §1

[7] = Metabolic stability / psilocin release in human liver S9 fractions; type: in vitro ADME; details: 2.5 μM, 400 μg/ml HLS9, NADPH, 37° C.
Description: as §1

[8] = +5-HT1A cells stimulated with 4 mM forskolin

Q: With CCC(=O)OCOc1cccc2c1c(CCN(C)C)cn2C(=O)CC [D(XIX)] as the compound, how does the 5-HT1A receptor modulation [1] read?
A: suggests significant receptor modulation

Q: And the “incidences of Head Twitch Response (HTR) relative to vehicle” value (“incidences … (HTR) relative to vehicle” below) [2]?
A: Elevated incidences of HTR

Q: With N[C@@H](Cc1c[nH]c2ccccc12)C(=O)O [tryptophan, reference compound] as the compound, how does the “cAMP levels with increasing doses of ligand” value [1, 8] read?
A: no reduction in cellular cAMP levels

Q: And the “competition binding at the 5-HT2A receptor” value [3]?
A: no binding

Q: For CCCCCCOC(=O)Oc1cccc2[nH]cc(CCN(C)C)c12 [B(V)], which 5-HT1A receptor modulation [1] is on record?
A: suggests no receptor modulation

Q: Which 5-HT1A receptor modulation [1] does the source give for CN(C)CCc1c[nH]c2cccc(OP3(=O)OCC(C)(C)CO3)c12 [F(II)] here?
A: reveals receptor modulation

Q: And the “incidences … (HTR) relative to vehicle” value [2]?
A: Elevated incidences of HTR

Q: Which “cAMP levels with increasing doses of ligand” value [1] does the source give for NCCc1c[nH]c2ccc(O)cc12 [serotonin, reference compound] here?
A: reduction in cAMP levels

Q: Which results are given for CN(C)CCc1c[nH]c2cccc(O[Si](c3ccccc3)(c3ccccc3)C(C)(C)C)c12 [A(III)]?
A: 5-HT1A receptor modulation [1]: suggests receptor modulation at higher ligand concentrations; incidences of Head Twitch Response (HTR) relative to vehicle [2]: Elevated incidences of HTR

Q: Which 5-HT1A receptor modulation [1] does the source give for CN(C)CCc1c[nH]c2cccc(OC(=O)OCC(Cl)(Cl)Cl)c12 [B(IV)] here?
A: suggests no receptor modulation

Q: And the “incidences … (HTR) relative to vehicle” value [2]?
A: Elevated incidences of HTR

Q: For CN(C)CCc1c[nH]c2cccc(O)c12 [psilocin, reference compound], which “cAMP levels with increasing doses of ligand” value [1, 8] is on record?
A: reduction in cAMP levels

Q: What about the “competition binding at the 5-HT2A receptor” value [3] of the same compound?
A: binding

Q: Which “stability in assay buffer” value [4] does the source give for CN(C)CCc1c[nH]c2cccc(OP(=O)(O)O)c12 [psilocybin] here?
A: stability of psilocybin was confirmed in assay buffer

Q: What about the “stability and conversion to psilocin in serum” value [5] of the same compound?
A: stable in serum with no conversion to psilocin

Q: And the “stability and conversion to psilocin in liver fractions (HLM)” value [6]?
A: stable in liver fractions with no conversion to psilocin

Q: What about the “stability and conversion to psilocin in liver fractions (HLS9)” value [7] of the same compound?
A: stable in liver fractions with no conversion to psilocin
